Test results: US8343512B2, “Treatment of allergic conditions using a composition containing synthetic adjuvant” (Infectious Disease Research Institute, priority 2006, dated 2013)

Legend:
ID83 antigen = ID83 antigen with GLA-SE, GLA/CpG-SE or GLA/GDQ-SE in mice, intracellular cytokine staining; type: in vivo, Mice (C57BL/6); conditions: GLA/GDQ-SE or GLA/CpG-SE versus GLA-SE
Leish-110f antigen = Leish-110f antigen with different amounts of GLA-SE in mice, IgG1/IgG2a ELISA; type: in vivo, Mice (Balb/c)
Experimental: Mice (three Balb/c animals per group) were immunized three times at two-week intervals with the Leish-110f antigen (10 μg per animal for each immunization) formulated in a stable emulsion containing different amounts of GLA (Avanti Polar Lipids, Inc., Alabaster, Ala.; product number 699800; 40, 20, 5, or 1 μg per animal for each immunization according to the procedure used in Example 3 above, GLA-SE). Sera were collected by bleeding animals one week after the first immunization, and serum levels of IgG1 and IgG2a antibodies specific for Leish-110f were examined by ELISA according to published methods (Id.).

Human whole blood cells = experiment: GLA stimulation of human blood cells, IL-1β ELISA; type: cell-based; conditions: 16 hours
Experimental: Human whole blood cells were cultured with various adjuvant concentrations of either synthetic GLA (Avanti Polar Lipids, Inc., Alabaster, Ala.; product number 699800) or the natural product MPL® (GSK Biologicals, Rixensart, Belgium), achieved by diluting an aqueous adjuvant preparation in cell culture medium (DMEM containing 10% fetal bovine serum). Blood cells were maintained for 16 hours at 37° C. in a humidified atmosphere containing 5% CO2, prior to collection of cell-free culture supernatants. Supernatant fluids were assayed for soluble human cytokine IL-1β using specific sandwich ELISA assay kit (eBiosciences, San Diego, Calif.) according to the manufacturer's instructions.

Influenza = experiment: Fluzone vaccine with GLA-AF or GLA-SE in mice, anti-Fluzone IgG ELISA and HAI; type: in vivo, Mice (Balb/c); conditions: GLA 20 μg in aqueous or stable oil formulation; compared to Fluzone alone
Experimental: Mice (three Balb/c animals per group) were immunized twice at three-week intervals with the Fluzone vaccine (Sanofi-Aventis, Swiftwater, Pa., at 1/25 (20 μl) and 1/250 (2 μl) of the human dosage, alone, or formulated in (i) an aqueous emulsion containing GLA (Avanti Polar Lipids, Inc., Alabaster, Ala.; product number 699800; 20 μg per animal for each immunization) according to the procedure used in Example 1 above (“GLA-AF”), or (ii) a stable emulsion containing GLA (Avanti Polar Lipids, Inc., Alabaster, Ala.; product number 699800; 20 μg per animal for each immunization) according to the procedure used in Example 3 above (“GLA-SE”). Sera were collected by bleeding animals one week after each immunization, and serum levels of total IgG antibodies specific for Fluzone were examined by ELISA according to published methods (Id.). Serum levels of virus neutralizing antibodies were also examined by Hemagglutination Inhibition Assay (HAI) according to published methods.

[1] = system: Dendritic cells derived from purified blood CD14+ monocytes; experiment: GLA stimulation of human dendritic cells, CD86 surface expression by flow cytometry; type: cell-based
From the text: Dendritic cells were derived from purified blood CD14+ monocytes following a published protocol. Various adjuvant concentrations of either synthetic GLA (Avanti Polar Lipids, Inc., Alabaster, Ala.; product number 699800) or the natural product MPL® (GSK Biologicals, Rixensart, Belgium) were achieved by diluting an aqueous adjuvant preparation in cell culture medium (RPMI containing 5% human serum). Prior to collection and analysis of the expression of activation markers, cells were maintained for 44 hours at 37° C. in a humidified atmosphere containing 5% CO2. Expression levels of the costimulatory molecule CD86 at the surface of DC were used as an indicator of cell activation and measured by flow cytometry on a LSRII instrument (BD Biosciences, San Jose, Calif.) using CD86-specific fluorochrome-labeled antibody (eBiosciences, San Diego, Calif.) according to the manufacturer's instructions.

USP Rabbit Pyrogen Test = conditions: in vivo
Experimental: GLA and MPL were evaluated for pyrogenicity/toxicity using the United States Pharmacopeial (USP) rabbit pyrogen test method. GLA was tested at the same doses and conditions commonly used for MPL.

ML0276 antigen = ML0276 antigen with CpG, Imiquimod, GLA-SE or mix in mice, IFN-γ CD4+ T cell ICS; type: in vivo, Mice (C57BL/6); conditions: adjuvant given with ML0276 antigen 10 μg; saline background 0.04%
Experimental: Mice (three C57BL/6 animals per group) were immunized three times at three-week intervals with the ML0276 antigen (10 μg per animal for each immunization) adjuvanted with aqueous formulations containing CpG (CpG1826, Coley Pharmaceutical, 25 μg per animal for each immunization), or Imiquimod (IMQ) (3M Pharma, 25 μg per animal for each immunization), or GLA (Avanti Polar Lipids, Inc., Alabaster, Ala.; product number 699800; 25 μg per animal for each immunization, according to the procedure used in Example 3 above, GLA-SE), a mix of the three, or saline as negative control. Three weeks after the last injection, mice were sacrificed and spleen collected to analyze CD4+ T cell-dependent IFN-γ cytokine responses to in vitro ML0276 antigen stimulation by ICS and Flow cytometry according to published methods. Expression of IFN-γ cytokine has been associated with protective TH1 responses against M. leprae infection.

CCNCc1nc2c(N)nc3ccccc3c2n1CC(C)(C)O [GDQ, Gardiquimod]
frequency of ID83 specific cytokine producing T cells on addition of a second TLR ligand to ID83+GLA-SE (ID83 antigen): further increased

CCCCCCCCCCCCCC(=O)O[C@H](CCCCCCCCCCC)CC(=O)O[C@@H]1[C@@H](NC(=O)C[C@@H](CCCCCCCCCCC)OC(=O)CCCCCCCCCCC)[C@H](OC[C@H]2O[C@H](O)[C@H](NC(=O)C[C@H](O)CCCCCCCCCCC)[C@@H](OC(=O)C[C@H](O)CCCCCCCCCCC)[C@@H]2O)O[C@H](CO)[C@H]1OP(=O)(O)O [GLA, glucopyranosyl lipid adjuvant]
Leish-110f-specific IgG1 and IgG2a antibody titers (Leish-110f antigen; GLA 40, 20, 5, or 1 μg in GLA-SE, one week after the first immunization): GLA dose-dependent
predominant Leish-110f-specific antibody isotype (Leish-110f antigen; all concentrations of GLA tested): Predominance of TH1 associated IgG2a antibody
concentration equivalent in potency (IL-1β secretion) (Human whole blood cells): 92 nM
Total IgG and neutralizing antibody titers in response to Fluzone vaccination (Influenza): enhanced
active at concentrations lower compared to MPL for human dendritic cell maturation ([1]; CD86 expression): at least 10 fold
CD86 expression, GLA versus MPL ([1]; additional three donors, 1000 ng/ml to 1 ng/mL): lower doses of GLA achieved higher CD86 expression than MPL
pyrogenicity/toxicity, USP<151> requirements (USP Rabbit Pyrogen Test): passed the USP<151> requirements for the absence of pyrogens

CC(C)Cn1cnc2c(N)nc3ccccc3c21 [IMQ, Imiquimod]
frequency of ML0276 specific IFN-γ+ CD4+ T cells (positive cells) (ML0276 antigen): 0.11%
